The target of this assay is T1, fMet-Leu-Phe receptor (Homo sapiens, UniProt P21462).
T1 sequence (P21462 whole entry): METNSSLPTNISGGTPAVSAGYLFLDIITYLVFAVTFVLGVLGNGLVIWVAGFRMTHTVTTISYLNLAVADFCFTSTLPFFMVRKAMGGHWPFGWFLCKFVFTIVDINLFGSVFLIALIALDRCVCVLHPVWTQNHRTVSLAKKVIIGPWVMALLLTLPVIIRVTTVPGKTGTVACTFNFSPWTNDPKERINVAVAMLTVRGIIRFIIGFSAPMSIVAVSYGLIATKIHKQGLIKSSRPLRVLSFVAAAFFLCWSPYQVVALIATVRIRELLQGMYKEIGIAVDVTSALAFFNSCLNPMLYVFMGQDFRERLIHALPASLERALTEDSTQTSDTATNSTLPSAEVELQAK
Briefly: FPR1 fluorescent ligand binding inhibitors, dose response, selectivity assay for FPRL1 ligand SAR project, cell-based, flow cytometry, IC50 (AID 762).

As for `COc1ccc(-c2cc(C(F)(F)F)nc(N3CCN(Cc4ccccc4)CC3)n2)cc1OC` [2-(4-benzylpiperazin-1-yl)-4-(3,4-dimethoxyphenyl)-6-(trifluoromethyl)pyrimidine], the Ki (commonly the equilibrium dissociation constant of an inhibitor or competing ligand from its target) was over 31.7 µM.

Molecule `CCC(=O)Nc1cc(-c2cn3cccnc3n2)ccc1OC` [N-(5-imidazo[1,2-a]pyrimidin-2-yl-2-methoxy-phenyl)propanamide] registered a Ki of over 49.1 µM.

Regarding `COc1ccc(-c2cn3cccnc3n2)cc1NC(=O)C1CCCC1` [MLS000045945], the inhibition constant (Ki) is over 43.3 µM.

The molecule `COc1ccc(-c2cn3cccnc3n2)cc1NC(=O)C1CC1` [MLS000045944] had an inhibition constant (Ki) of over 47.2 µM.

`COc1ccc(-c2cc(C(F)(F)F)nc(N3CCN(C(c4ccccc4)c4ccccc4)CC3)n2)cc1OC` [2-(4-benzhydrylpiperazin-1-yl)-4-(3,4-dimethoxyphenyl)-6-(trifluoromethyl)pyrimidine]: the Ki is over 27.2 µM.

`CCOC(=O)N1CCN(c2nc(-c3ccc(OC)c(OC)c3)cc(C(F)(F)F)n2)CC1` [4-[4-(3,4-dimethoxyphenyl)-6-(trifluoromethyl)-2-pyrimidinyl]-1-piperazinecarboxylic acid ethyl ester] returned a Ki of over 33 µM.

In turn, `COc1ccc(-c2cn3cccnc3n2)cc1NC(=O)C(C)C` [N-(5-imidazo[1,2-a]pyrimidin-2-yl-2-methoxy-phenyl)-2-methyl-propanamide] showed a Ki of over 46.9 µM.

Molecule `COc1ccc(CC(=O)Nc2cc(-c3cn4cccnc4n3)ccc2OC)cc1` [N-(5-imidazo[1,2-a]pyrimidin-2-yl-2-methoxy-phenyl)-2-(4-methoxyphenyl)acetamide] displayed a Ki of over 37.4 µM.

On to `COc1ccc(-c2cc(C(F)(F)F)nc(N3CCN(c4ccccc4)CC3)n2)cc1OC` [4-(3,4-dimethoxyphenyl)-2-(4-phenyl-1-piperazinyl)-6-(trifluoromethyl)pyrimidine], for which the Ki is over 32.7 µM.

`O=C(N1CCN(c2nc(-c3ccccc3)c3ccccc3n2)CC1)C(F)(F)F` [2,2,2-trifluoro-1-[4-(4-phenyl-2-quinazolinyl)-1-piperazinyl]ethanone] had a Ki of over 37.6 µM.

The record behind these values is BindingDB's records for doi:10.7270/Q21V5CBG (NMMLSC, 2007).
